Laboratory results reported in PubChem BioAssay (NCI).
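The compound was tested at five concentrations on cells cultured in 96-well plates, with a 48-hour exposure period. GI50: concentration for 50% inhibition of growth. TGI: concentration producing complete growth inhibition.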

Assays:
Experiment in all cases: NCI tumour cell line growth inhibition, 48 h
DMS 114 small cell lung = system: DMS 114 small cell lung
DLD-1 colon = system: DLD-1 colon
HOP-18 NSCLC = system: HOP-18 NSCLC
SNB-78 CNS = system: SNB-78 CNS
KM20L2 colon = system: KM20L2 colon
XF 498 CNS = system: XF 498 CNS
DMS 273 small cell lung = system: DMS 273 small cell lung
RXF-631 renal = system: RXF-631 renal
P388/ADR leukemia = system: P388/ADR leukemia
P388 leukemia = system: P388 leukemia
SN12K1 renal = system: SN12K1 renal

| SMILES | TGI (DMS 114 small cell lung) [µM] | TGI (DLD-1 colon) [µM] | TGI (HOP-18 NSCLC) [µM] | TGI (SNB-78 CNS) [µM] | TGI (KM20L2 colon) [µM] | TGI (XF 498 CNS) [µM] | TGI (DMS 273 small cell lung) [µM] | TGI (RXF-631 renal) [µM] | TGI (P388/ADR leukemia) [µM] | TGI (P388 leukemia) [µM] | TGI (SN12K1 renal) [µM] | GI50 (XF 498 CNS) [µM] | GI50 (DLD-1 colon) [µM] | GI50 (DMS 273 small cell lung) [µM] | GI50 (HOP-18 NSCLC) [µM] |
| --- | --- | --- | --- | --- | --- | --- | --- | --- | --- | --- | --- | --- | --- | --- | --- |
| CCc1nc2ccc(NCCN(C)C)c3c(=O)c4ccccc4n1c23 | 14.8 | 9.88 | 6.55 | 19.3 | 6.31 |  |  |  |  |  |  |  |  |  |  |
| CCOC(=O)N(c1ccccc1)N(CC)C(=O)/C(C)=N/Nc1ccc([N+](=O)[O-])cc1 | 43.5 | 30.7 | 36.9 | 58.9 | 31.3 | 33.4 | 30 |  |  |  |  |  |  |  |  |
| CC(=O)NC(CC(C)C)C(=O)NC(Cc1ccccc1)C(=S)N1CCCC1 (stereo not given) | > 100 |  |  |  | > 100 | > 100 | > 100 | > 100 |  |  |  |  |  |  |  |
| O=C1Nc2ccccc2Nc2ccncc21 | > 100 | > 100 | > 100 | > 100 | > 100 |  | > 100 |  | > 31.6 | > 100 | > 100 |  |  |  |  |
| Cc1cc(=O)[nH]c(NN2C(Cl)C(=O)C2c2cccc(Cl)c2)n1 (stereo not given) | 54.8 |  | 55.2 | 79.3 | > 100 |  | 33.9 |  |  |  |  |  |  |  |  |
| O=c1[nH]cnc2c1nnn2CCCCCCCCCCCCn1nnc2c(=O)[nH]cnc21 | 39.4 | > 100 | > 100 | 48 | > 100 |  | > 100 |  |  |  |  |  |  |  |  |
| COc1cccc(-c2cc(=O)c3ccccc3[nH]2)c1 | > 59.3 | > 100 | > 100 |  | 27.1 | 72.3 | > 100 |  |  |  |  |  |  |  |  |
| COc1cccc(/C=N/[N-]C(N)=O)c1[O-].[Cu+2].[OH3+].c1ccc(-c2ccccn2)nc1 |  |  |  |  | > 100 | 19.9 |  |  |  |  |  | 7.92 |  |  |  |
| CN1c2ccccc2N(C(=O)c2ccccc2)C(CC(=O)O)c2cccn21 (stereo not given) | > 100 |  | > 100 |  | > 100 | > 100 | > 100 | > 100 |  |  |  |  |  |  |  |
| CC(=O)[CH-]C(=O)c1ccccc1.CC(=O)[CH-]C(=O)c1ccccc1.C[C@]12CCC(=O)C=C1CC[C@@H]1C2CC[C@@]2(C)C1CC[C@]2(C)[O-].C[C@]12CCC(=O)C=C1CC[C@@H]1C2CC[C@@]2(C)C1CC[C@]2(C)[O-].Cl.[Ti+4] (stereo not given in full) |  | 40.9 | > 100 |  |  |  | 89.9 |  |  |  |  |  | 12.2 | 17.4 | 40 |
| CC1(C)C(=O)C(C)(C)C1=S | > 100 | > 100 |  |  | > 100 | > 100 | > 100 |  |  |  |  |  |  |  |  |
| Nc1ncnc2c1ncn2C1CC(OCc2ccccc2[N+](=O)[O-])C(CO)O1 (stereo not given) | 47.2 | > 50 | > 50 | > 50 | > 50 | > 50 | > 50 |  |  |  |  |  |  |  |  |
| O=C1C(CN2CCOCC2)CCCC1CN1CCOCC1 (stereo not given) | 11.4 | 1.83 | 3.2 | 5.02 | 58.2 |  | 19.4 | 30.4 |  |  |  |  |  |  |  |
| O=C(NNc1ccccc1)/C(=C/c1ccc2c(c1)OCO2)NC(=O)c1ccccc1 |  | > 100 | > 100 | > 100 | > 100 | > 100 | > 100 |  |  |  |  |  |  |  |  |
| O=P(O)(O)C1(P(=O)(O)O)CC1 | > 100 |  |  | > 100 | > 100 | > 100 | > 100 |  |  |  |  |  |  |  |  |
| Nc1c(Cl)ncnc1NCCCNc1ncnc(Cl)c1N | > 100 | > 100 | > 100 | > 100 | > 100 | > 100 | > 100 |  |  |  |  |  |  |  |  |
